The results in this text go back to patent US11028061B2, “Modulators of myocyte lipid accumulation and insulin resistance and methods of use thereof” (Sanford Burnham Prebys Medical Discovery Institute, priority 2015, dated 2021).

For orientation: IC50 means the concentration that gives 50% inhibition.

In one assay the test system is primary murine skeletal myocytes. In words: TAG accumulation in primary murine skeletal myocytes. It counts as cell-based. Particulars: Mus musculus, read-out: Activity Score (IC50), triacylglyceride (TAG) accumulation.
As for `COc1ccc(-c2csc(NC(=O)c3ccc(OCC(=O)N4CCC(=O)CC4)c(OC)c3)n2)cc1` [Cpd. 12, 3-methoxy-N-(4-(4-methoxyphenyl)thiazol-2-yl)-4-(2-oxo-2-(4-oxopiperidin-1-yl)ethoxy)benzamide], the IC50 lay within 1 to 10 µM.

Still in this assay, the particulars now being: Mus musculus; primary murine skeletal myocytes; read-out: Activity Score (IC50), triacylglyceride (TAG) accumulation.
For `COc1ccc(-c2csc(NC(=O)c3ccc(O)c(OC)c3)n2)cc1` [Cpd. 1, 4-hydroxy-3-methoxy-N-(4-(4-methoxyphenyl)thiazol-2-yl)benzamide], the concentration for half-maximal inhibition (IC50) was more than 10 µM.
As to `COc1cc(C(=O)Nc2nc(-c3ccccc3)cs2)ccc1O` [Cpd. 2, 4-hydroxy-3-methoxy-N-(4-phenylthiazol-2-yl)benzamide], the IC50 was more than 10 µM.
`COc1cc(C(=O)Nc2nc(-c3ccc(C)cc3)cs2)ccc1O` [Cpd. 3, 4-hydroxy-3-methoxy-N-(4-(p-tolyl)thiazol-2-yl)benzamide]: the IC50 is more than 10 µM.
In the case of `COc1cc(C(=O)Nc2nc(-c3ccc(Cl)cc3)cs2)ccc1O` [Cpd. 4, N-(4-(4-chlorophenyl)thiazol-2-yl)-4-hydroxy-3-methoxybenzamide], the IC50 lay within 1 to 10 µM.
Take `COc1cc(C(=O)Nc2nc(-c3ccc(Cl)c(Cl)c3)cs2)ccc1O` [Cpd. 5, N-(4-(3,4-dichlorophenyl)thiazol-2-yl)-4-hydroxy-3-methoxybenzamide]: the IC50 was in the range of 1 to 10 µM.
For `COc1cc(C(=O)Nc2nc(-c3ccc(C#N)cc3)cs2)ccc1O` [Cpd. 6, N-(4-(4-cyanophenyl)thiazol-2-yl)-4-hydroxy-3-methoxybenzamide], the IC50 was 1 to 10 µM.
As to `COc1ccc(-c2csc(NC(=O)c3ccc(OCC(=O)N4CCCCC4)c(OC)c3)n2)cc1` [Cpd. 8, 3-methoxy-N-(4-(4-methoxyphenyl)thiazol-2-yl)-4-(2-oxo-2-(piperidin-1-yl)ethoxy)benzamide], the IC50 was 1 to 10 µM.
`COc1ccc(-c2csc(NC(=O)c3ccc(OCC(=O)N4CCN(C)CC4)c(OC)c3)n2)cc1` [Cpd. 9, 3-methoxy-N-(4-(4-methoxyphenyl)thiazol-2-yl)-4-(2-(4-methylpiperazin-1-yl)-2-oxoethoxy)benzamide]: the IC50 is less than 1 µM.
For the compound `COc1ccc(-c2csc(NC(=O)c3ccc(OCC(=O)NCC4CC4)c(OC)c3)n2)cc1` [Cpd. 10, 4-(2-((cyclopropylmethyl)amino)-2-oxoethoxy)-3-methoxy-N-(4-(4-methoxyphenyl)thiazol-2-yl)benzamide], the IC50 lay in the range of 1 to 10 µM.
With `COc1ccc(-c2csc(NC(=O)c3ccc(OCC(=O)N4CCSCC4)c(OC)c3)n2)cc1` [Cpd. 11, 3-methoxy-N-(4-(4-methoxyphenyl)thiazol-2-yl)-4-(2-oxo-2-thiomorpholinoethoxy)benzamide], the IC50 is less than 1 µM.
As to `COc1ccc(-c2csc(NC(=O)c3ccc(OCC(=O)N4CCN(S(C)(=O)=O)CC4)c(OC)c3)n2)cc1` [Cpd. 13, 3-methoxy-N-(4-(4-methoxyphenyl)thiazol-2-yl)-4-(2-(4-(methylsulfonyl)piperazin-1-yl)-2-oxoethoxy)benzamide], the concentration for half-maximal inhibition (IC50) is more than 10 µM.
Turning to `COc1ccc(-c2csc(NC(=O)c3ccc(OCC(=O)NCCN4CCCCC4)c(OC)c3)n2)cc1` [Cpd. 14, 3-methoxy-N-(4-(4-methoxyphenyl)thiazol-2-yl)-4-(2-oxo-2-((2-(piperidin-1-yl)ethyl)amino)ethoxy)benzamide], the IC50 lay within 1 to 10 µM.
On the same count and under the same terms, for `CCN(CCN(C)C)C(=O)COc1ccc(C(=O)Nc2nc(-c3ccc(OC)cc3)cs2)cc1OC` [Cpd. 15, 4-(2-((2-(dimethylamino)ethyl)(ethyl)amino)-2-oxoethoxy)-3-methoxy-N-(4-(4-methoxyphenyl)thiazol-2-yl)benzamide] the value was more than 10 µM; for `COC(=O)CNC(=O)COc1ccc(C(=O)Nc2nc(-c3ccc(OC)cc3)cs2)cc1OC` [Cpd. 16, Methyl (2-(2-methoxy-4-((4-(4-methoxyphenyl)thiazol-2-yl)carbamoyl)phenoxy)acetyl)glycinate], more than 10 µM.
`COc1ccc(-c2csc(NC(=O)c3ccc(OCC(N)=O)c(OC)c3)n2)cc1` [Cpd. 17, 4-(2-amino-2-oxoethoxy)-3-methoxy-N-(4-(4-methoxyphenyl)thiazol-2-yl)benzamide]: the IC50 lay within 1 to 10 µM.
On the same count and under the same terms, for `CNC(=O)COc1ccc(C(=O)Nc2nc(-c3ccc(OC)cc3)cs2)cc1OC` [Cpd. 18, 3-methoxy-N-(4-(4-methoxyphenyl)thiazol-2-yl)-4-(2-(methylamino)-2-oxoethoxy)benzamide] the value was less than 1 µM; for `COc1ccc(-c2csc(NC(=O)c3ccc(OCC(=O)N(C)C)c(OC)c3)n2)cc1` [Cpd. 19, 4-(2-(dimethylamino)-2-oxoethoxy)-3-methoxy-N-(4-(4-methoxyphenyl)thiazol-2-yl)benzamide], 1 to 10 µM.
Take `COCCNC(=O)COc1ccc(C(=O)Nc2nc(-c3ccc(OC)cc3)cs2)cc1OC` [Cpd. 20, 3-methoxy-4-(2-((2-methoxyethyl)amino)-2-oxoethoxy)-N-(4-(4-methoxyphenyl)thiazol-2-yl)benzamide]: the IC50 was in the range of 1 to 10 µM.
Take `COCCCNC(=O)COc1ccc(C(=O)Nc2nc(-c3ccc(OC)cc3)cs2)cc1OC` [Cpd. 21, 3-methoxy-N-(4-(4-methoxyphenyl)thiazol-2-yl)-4-(2-((3-methoxypropyl)amino)-2-oxoethoxy)benzamide]: the IC50 fell in the range of 1 to 10 µM.
`COc1ccc(-c2csc(NC(=O)c3ccc(OCC(=O)NC4CCC4)c(OC)c3)n2)cc1` [Cpd. 22, 4-(2-(cyclobutylamino)-2-oxoethoxy)-3-methoxy-N-(4-(4-methoxyphenyl)thiazol-2-yl)benzamide]: the IC50 was less than 1 µM.
As to `COc1ccc(-c2csc(NC(=O)c3ccc(OCC(=O)NCc4ccccc4)c(OC)c3)n2)cc1` [Cpd. 23, 4-(2-(benzylamino)-2-oxoethoxy)-3-methoxy-N-(4-(4-methoxyphenyl)thiazol-2-yl)benzamide], the IC50 is 1 to 10 µM.
The same measure, in the same setting: the same measure for `COc1ccc(-c2csc(NC(=O)c3ccc(OCC(=O)NCc4ccccn4)c(OC)c3)n2)cc1` [Cpd. 24, 3-methoxy-N-(4-(4-methoxyphenyl)thiazol-2-yl)-4-(2-oxo-2-((pyridin-2-ylmethyl)amino)ethoxy) Benzamide]: more than 10 µM.
As to `COc1cc(C(=O)Nc2nc(-c3ccccc3)cs2)ccc1OCC(=O)N1CCOCC1` [Cpd. 25, 3-methoxy-4-(2-morpholino-2-oxoethoxy)-N-(4-phenylthiazol-2-yl)benzamide], the IC50 is less than 1 µM.
`COc1cc(C(=O)Nc2nc(-c3ccc(OC(F)(F)F)cc3)cs2)ccc1OCC(=O)N1CCOCC1` [Cpd. 26, 3-methoxy-4-(2-morpholino-2-oxoethoxy)-N-(4-(4-(trifluoromethoxy)phenyl)thiazol-2-yl)benzamide]: the IC50 was less than 1 µM.
`COc1cc(C(=O)Nc2nc(-c3ccc(O)cc3)cs2)ccc1OCC(=O)N1CCOCC1` [Cpd. 27, N-(4-(4-hydroxyphenyl)thiazol-2-yl)-3-methoxy-4-(2-morpholino-2-oxoethoxy)benzamide]: the IC50 was less than 1 µM.
For `CCOc1ccc(-c2csc(NC(=O)c3ccc(OCC(=O)N4CCOCC4)c(OC)c3)n2)cc1` [Cpd. 28, N-(4-(4-ethoxyphenyl)thiazol-2-yl)-3-methoxy-4-(2-morpholino-2-oxoethoxy)benzamide], the IC50 is less than 1 µM.
Regarding `COc1cc(C(=O)Nc2nc(-c3ccc(OC(C)C)cc3)cs2)ccc1OCC(=O)N1CCOCC1` [Cpd. 29, N-(4-(4-isopropoxyphenyl)thiazol-2-yl)-3-methoxy-4-(2-morpholino-2-oxoethoxy)benzamide], the IC50 was less than 1 µM.
For `COc1cc(C(=O)Nc2nc(-c3ccc(C)cc3)cs2)ccc1OCC(=O)N1CCOCC1` [Cpd. 30, 3-methoxy-4-(2-morpholino-2-oxoethoxy)-N-(4-(p-tolyl)thiazol-2-yl)benzamide], the IC50 was less than 1 µM.
`COc1cc(C(=O)Nc2nc(-c3ccc(Cl)cc3)cs2)ccc1OCC(=O)N1CCOCC1` [Cpd. 31, N-(4-(4-chlorophenyl)thiazol-2-yl)-3-methoxy-4-(2-morpholino-2-oxoethoxy)benzamide]: the IC50 is less than 1 µM.
Regarding `COc1cc(C(=O)Nc2nc(-c3ccc(C#N)cc3)cs2)ccc1OCC(=O)N1CCOCC1` [Cpd. 32, N-(4-(4-cyanophenyl)thiazol-2-yl)-3-methoxy-4-(2-morpholino-2-oxoethoxy)benzamide], the IC50 was less than 1 µM.
For `COc1cc(C(=O)Nc2nc(-c3ccc([N+](=O)[O-])cc3)cs2)ccc1OCC(=O)N1CCOCC1` [Cpd. 33, 3-methoxy-4-(2-morpholino-2-oxoethoxy)-N-(4-(4-nitrophenyl)thiazol-2-yl)benzamide], the IC50 was less than 1 µM.
`COc1cc(C(=O)Nc2nc(-c3ccc(N4CCCC4)cc3)cs2)ccc1OCC(=O)N1CCOCC1` [Cpd. 34, 3-methoxy-4-(2-morpholino-2-oxoethoxy)-N-(4-(4-(pyrrolidin-1-yl)phenyl)thiazol-2-yl)benzamide]: the IC50 is less than 1 µM.
On to `COc1cccc(-c2csc(NC(=O)c3ccc(OCC(=O)N4CCOCC4)c(OC)c3)n2)c1` [Cpd. 35, 3-methoxy-N-(4-(3-methoxyphenyl)thiazol-2-yl)-4-(2-morpholino-2-oxoethoxy)benzamide], for which the IC50 was in the range of 1 to 10 µM.
On to `COc1ccc(-c2csc(NC(=O)c3ccc(OCC(=O)N4CCOCC4)c(OC)c3)n2)c(OC)c1` [Cpd. 36, N-(4-(2,4-dimethoxyphenyl)thiazol-2-yl)-3-methoxy-4-(2-morpholino-2-oxoethoxy)benzamide], for which the IC50 was less than 1 µM.
For the compound `COc1cc(C(=O)Nc2nc(-c3ccc(Cl)c(Cl)c3)cs2)ccc1OCC(=O)N1CCOCC1` [Cpd. 37, N-(4-(3,4-dichlorophenyl)thiazol-2-yl)-3-methoxy-4-(2-morpholino-2-oxoethoxy)benzamide], the IC50 was less than 1 µM.
Regarding `COc1ccc(-c2csc(NC(=O)c3ccc(OCC(=O)N4CCOCC4)c(OC)c3)n2)cc1OC` [Cpd. 38, N-(4-(3,4-dimethoxyphenyl)thiazol-2-yl)-3-methoxy-4-(2-morpholino-2-oxoethoxy)benzamide], the IC50 was 1 to 10 µM.
On the same count and under the same terms, the same measure for `COc1cc(C(=O)Nc2nc(-c3ccc4c(c3)OCO4)cs2)ccc1OCC(=O)N1CCOCC1` [Cpd. 39, N-(4-(benzo[d][1,3]dioxol-5-yl)thiazol-2-yl)-3-methoxy-4-(2-morpholino-2-oxoethoxy)benzamide]: 1 to 10 µM.
